# From patent US6919314B1, “Bioactive whey protein hydrolysate” (New Zealand Dairy Board, priority 1998, dated 2005)
# Marks after values point to notes of the source that are not given here. Ends that are not written are not given here. Peptide text beside a SMILES is read from it.
# Experiments:
# rabbit lung ACE = molecular target: T1, rabbit lung ACE (Oryctolagus cuniculus, UniProt P12822); test: ACE-I activity using FAPGG as substrate (method of Cushman & Cheung); type: biochemical; details: colorimetric substrate FAPGG; for IC50: purified peptide, read-out: Activity (IC50 in mg L^−1) (converted)
# T1 construct: reagents from Sigma product 305-10) consisting of rabbit lung ACE; purchased Sigma Chemical Corporation, St Louis, Mo., USA 305-10; host or cells: rabbit lung (tissue-derived enzyme)
# T1 sequence (P12822 34-1310): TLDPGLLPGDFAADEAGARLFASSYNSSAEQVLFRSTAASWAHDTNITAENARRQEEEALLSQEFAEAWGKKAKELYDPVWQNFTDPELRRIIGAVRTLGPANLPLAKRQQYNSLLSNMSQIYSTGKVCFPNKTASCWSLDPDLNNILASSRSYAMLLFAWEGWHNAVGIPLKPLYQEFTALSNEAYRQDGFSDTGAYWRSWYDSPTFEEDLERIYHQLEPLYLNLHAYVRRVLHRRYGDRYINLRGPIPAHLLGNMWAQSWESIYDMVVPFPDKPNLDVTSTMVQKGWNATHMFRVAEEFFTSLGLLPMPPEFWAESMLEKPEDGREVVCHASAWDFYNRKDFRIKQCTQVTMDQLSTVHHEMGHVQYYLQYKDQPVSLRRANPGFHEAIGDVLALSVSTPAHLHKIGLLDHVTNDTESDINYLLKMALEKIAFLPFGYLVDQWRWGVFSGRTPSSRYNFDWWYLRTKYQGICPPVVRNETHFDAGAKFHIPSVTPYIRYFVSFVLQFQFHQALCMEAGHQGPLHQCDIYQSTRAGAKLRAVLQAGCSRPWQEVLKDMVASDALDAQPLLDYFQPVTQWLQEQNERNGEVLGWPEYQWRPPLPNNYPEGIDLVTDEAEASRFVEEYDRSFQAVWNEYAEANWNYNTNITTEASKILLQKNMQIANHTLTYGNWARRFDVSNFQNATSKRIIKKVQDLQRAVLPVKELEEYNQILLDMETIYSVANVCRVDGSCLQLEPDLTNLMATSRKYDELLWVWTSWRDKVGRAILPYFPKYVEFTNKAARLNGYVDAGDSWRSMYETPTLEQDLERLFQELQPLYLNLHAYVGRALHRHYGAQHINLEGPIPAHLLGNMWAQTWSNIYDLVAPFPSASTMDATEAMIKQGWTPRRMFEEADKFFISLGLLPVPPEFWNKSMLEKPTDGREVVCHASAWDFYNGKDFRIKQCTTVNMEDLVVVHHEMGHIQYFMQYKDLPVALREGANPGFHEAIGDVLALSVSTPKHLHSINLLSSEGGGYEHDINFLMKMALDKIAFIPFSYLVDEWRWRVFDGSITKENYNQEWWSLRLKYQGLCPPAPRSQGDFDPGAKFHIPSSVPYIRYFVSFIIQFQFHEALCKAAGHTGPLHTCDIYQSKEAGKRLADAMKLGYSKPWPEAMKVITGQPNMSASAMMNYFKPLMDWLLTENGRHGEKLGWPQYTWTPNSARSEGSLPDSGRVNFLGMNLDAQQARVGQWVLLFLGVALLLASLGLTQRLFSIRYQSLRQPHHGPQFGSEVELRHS
# Method: A pH of 7.0 and an enzyme substrate ratio of 0.3% w/w was used for the hydrolysis. The hydrolysate was adjusted to pH 5.0 and heated at 65° C. for 30 min to inactivate the enzyme. […] ACE-I activities are expressed as the amount of material (g/L) needed to reduce the activity of the ACE-I enzyme by 50%.
# Each fraction was lyophilised and the amount of peptide material present was measured gravimetrically. […] If a peptide inhibits ACE, the change in absorbance at 340 nm is reduced. […] The eluate was collected using the fraction collector set to collect 0.5 min fractions.
# Samples from each fraction were analysed using an analytical reverse-phase HPLC column, and those fractions containing a single, identical peptide were pooled. Each pooled fraction was lyophilised and the weight of the peptide present was determined gravimetrically. The purified peptides were assayed for ACE-I activity as before and the IC50 was calculated for […] individual peptide.
# [1] = tested on: spontaneously hypertensive rats (SHR/N); test: In vivo blood pressure in spontaneously hypertensive rats (tail cuff); set-up: species or system rat; details: 30 mg/Kg bodyweight/day for 8 weeks, compared with the hydrolysate
# Source text: The rat strain has been specifically selected for their development of high blood pressure on maturing, and is used extensively to monitor the effect of blood pressure lowering agents.
# Eight week old rats were individually housed in plastic rat cages and kept in temperature controlled facilities throughout the trial. They had unlimited access to water and were fed commercial rat chow ad libitum. The test products were given orally as a single daily dose for 8 weeks during which time changes in blood pressure were monitored.
Compound,IC50 (rabbit lung ACE) [µM],other results
"CC(C)C[C@H](N)C(=O)N[C@@H](Cc1ccccc1)C(=O)N[C@@H](CO)C(=O)N[C@@H](Cc1c[nH]cn1)C(=O)O [LFSH, Leu-Phe-Ser-His] (H-LFSH-OH; N-terminus and C-terminus assumed)",59.7,
"CSCC[C@H](N)C(=O)N[C@@H](CCCCN)C(=O)NCC(=O)O [MKG, Met-Lys-Gly] (H-Met-Lys-Gly-OH; N-terminus and C-terminus assumed)",71.8,
C[C@H](CS)C(=O)N1CCC[C@H]1C(=O)O [captopril],,systolic blood pressure [1]: effect of the hydrolysate was not as great as that of captopril
"ALPMH [ALPMH, Ala-Leu-Pro-Met-His]",21.1,
"ILKEKH [ILKEKH, Ile-Leu-Lys-Glu-Lys-His]",26.1,
"LDIQK [LDIQK, Leu-Asp-Ile-Gln-Lys]",27.6,
"LHLPLP [LHLPLP, Leu-His-Leu-Pro-Leu-Pro]",10.2,
"LIVTQ [LIVTQ, Leu-Ile-Val-Thr-Gln]",29.7,
LVYPFPGPIPNSLPQNIPP,9.22,
"Leu-Phe-Arg-Glu (LFRE; not fully specified; printed: Leu-Phe-Arg-Glu) [LFRQ, origin αs1-CN(136-139)]",,Activity (IC50 in mg L^−1) (rabbit lung ACE; activity measured with that of another peptide of unknown origin): 17^h mg L^−1
"VTSTAV [VTSTAV, Val-Thr-Ser-Thr-Ala-Val]",52,
